The target of assay [1] is T1, PARP1 (Homo sapiens, UniProt P09874). Nature of the assay: PARP1 biochemical trapping assay (BPS PARPtrap). As for the experimental part:
Compounds of the present disclosure were tested in a PARP1 biochemical trapping assay at BPS Bioscience (San Diego, CA). PARP1 is known to bind damaged DNA through its DNA-binding domains. Binding to DNA activates PARP1, and in the presence of NAD+, PARP1 ribosylates itself (auto-ribosylation), leading to PARP1 dissociation from the DNA due to the accumulated negative charge of the ribosyl polymer. In the presence of some inhibitors, however, PARP remains bound to the DNA, a phenomenon termed trapping.
The BPS PARPtrap assay kit for PARP1 (BPS Catalog #80584) was used. A series of dilutions of the compounds were prepared with 10% DMSO in water. The final concentration of DMSO was 1% in all reactions. The enzymatic reactions were conducted in duplicates at room temperature in a 96-well plate. The 45 μl reaction mixtures in PARPtrap buffer 1 containing PARP1 fluorescent labelled oligonucleotide duplex, PARP enzyme and the test compound were incubated at room temperature for 10 min. After pre-incubation, the enzymatic reaction was initiated by adding 5 μl of 10×NAD+ solution. The reaction was incubated for 45-60 min at room temperature.
Fluorescence polarization was measured at an excitation of 470 nm and an emission of 518 nm using a Tecan Infinite M1000 microplate reader. The blank value was subtracted from all other values. Fluorescence polarization was analyzed by Tecan Magellan 6 software and wells containing DNA were used as references. The fluorescence polarization data were then evaluated using GraphPad Prism software. The fluorescence polarization in absence of the compound in each data set was defined as 0% activity (FPo), while the fluorescence polarization in the absence of both NAD+ and the compound was defined as 100% activity (FPt). The percent activity in the presence of the compound was calculated according to the equation % activity=[FP−FPo]/[(FPt−FPo)]×100, where FP=the fluorescence polarization in the presence of the compound.
The values of % activity versus a series of compound concentrations were then plotted using non-linear regression analysis of a sigmoidal dose-response curve generated with the equation Y=B+(T−B)/1+10^((LogEC50−X)×Hill Slope), where Y=percent activity, B=minimum percent activity, T=maximum percent activity, X=logarithm of compound and Hill Slope=slope factor or Hill coefficient. The EC50 value was determined by the concentration causing a half-maximal percent activity. EC50 values are shown in Table C and are presented in ranges, in which “+++”<300 nM, 300 nM≤“++”<3000 nM, and “+”≥3000 nM.

A further assay concerns the target recombinant human PARP2 (Homo sapiens, UniProt Q9UGN5). The experiment in a line: PARP2 fluorescence polarization binding assay. The conditions noted are these: for inhibition at 10 µM: read-out: PARP2 % inh at 10 μM; for IC50: binding IC50, GST-tagged PARP2 20 nM, PARPi-FL 3 nM. How it is done:
Compounds of the present disclosure were tested in a PARP2 fluorescence polarization binding assay at Pharmaron (Beijing, P.R. China). In this biochemical assay, binding of test compound to recombinant human PARP2 reduces the amount of binding of a fluorescent probe, and consequently reduces the detected level of fluorescence polarization. Test compound stock solutions were prepared in DMSO and then serially diluted into 10 concentrations by 3-fold dilution in a 384-well plate using a TECAN EVO200. Alternatively, a single concentration was prepared. 60 nL of each dilution was transferred to the plate using an Echo550 (Labcyte), and then 10 μL 40 nM GST-tagged PARP2 (BPS Bioscience, Cat #80502), diluted in assay buffer (50 mM Tris pH 8.0, 0.001% Triton X-100, 10 mM MgCl2, 150 mM NaCl), was added to the plate. After a centrifugation at 1000 rpm for 1 min, the assay plate was incubated for 30 min at RT. 10 μL 6 nM PARPi-FL (TOCRIS, Cat #6461), diluted using assay buffer, was then added to the plate. […] After a centrifugation at 1000 rpm for 1 min, the assay plate was incubated for 4 h at RT. Samples in each well were read using an Envision instrument (Perkin-Elmer; Ex=480 nm Em=FITC FP-P pol 535 nm & FITC FP-S pol 535 nm). […] Binding IC50 values were calculated using XLFit (equation 201: […])^D))), where A=bottom, B=top, C=IC50, and D=slope) with a floating top and bottom for curves.
(In general: Polarisation of emitted light reports the rotation of a fluorescent probe.)

Assay [2] concerns DLD-1 wild-type colorectal adenocarcinoma cells. Nature of the assay: Cell viability assay (Cell Titer-Glo), DLD-1 wild-type. Type of assay: cell-based. The note with it: Homo sapiens, DLD-1, 168 h, 7 days incubation; for inhibition at 10 µM: read-out: DLD-1 wild-type % inh at 10 μM; for IC50: 50 cells/well. As for the experimental part:
(§1) Compounds of the present disclosure were tested for their effects on the viability of cancer cells. DLD-1 wild-type and DLD-1 BRCA2(−/−) colorectal adenocarcinoma cells, an isogenic pair of cell lines differing in the presence and absence, respectively, of both BRCA2 alleles, were used. The cells were harvested during the logarithmic growth period, counted, and seeded at 50 cells/well for DLD-1 wild-type and 200 cells/well for DLD-1 BRCA2(−/−) in a 384-well cell culture plate. After seeding, cells were incubated at 37° C., 5% CO2 overnight. Cells were treated with serially diluted test compounds at 10 concentrations (e.g., from 1.5 nM-30 μM) for generation of dose response curves, or at a single concentration. The plate was further incubated for another 7 days in a humidified incubator at 37° C. and 5% CO2. Cell viability was assessed by luminescence measurement after addition of Cell Titer-Glo reagent (Promega, Madison, Wis.) according to the manufacturer's instructions. Cell viability IC50 values were calculated using XLFit, equation 201: y=A+((B−A)/(1+((x/C)^D))), where A=bottom, B=top, C=IC50, and D=slope. IC50 values are shown in Table B and are presented in ranges, in which “+++”<300 nM, 300 nM≤“++”<3000 nM, and “+”≥3000 nM. Values for percent inhibition at 10 μM are also shown in Table B and are presented in ranges, in which “***”≥67%, 33%≤“**”<67%, and “*”<33%. Effects of the test compounds on the viability of other cell lines such as MDA-MB-436, MDA-MB-231, SUM149PT, HCC1395, and UWB1.289 are determined in an analogous method.
(In general: Cellular ATP, detected with luciferase, serves as a proxy for viable cell number.)

Assay [3] has as its system DLD-1 BRCA2(−/−) colorectal adenocarcinoma cells. Nature of the assay: Cell viability assay (Cell Titer-Glo), DLD-1 BRCA2(−/−). Type of assay: cell-based. The note with it: Homo sapiens, DLD-1, 168 h; 7 days incubation, 200 cells/well. As for the experimental part: as §1
In assay [4] the target is T1, PARP1. The experiment in a line: PARP1 fluorescence polarization binding assay. The conditions noted are these: binding IC50, GST-tagged PARP1 20 nM, PARPi-FL 3 nM. How it is done:
Compounds of the present disclosure were tested in a PARP1 fluorescence polarization binding assay at Pharmaron (Beijing, P.R.China). In this biochemical assay, binding of test compound to recombinant human PARP1 reduces the amount of binding of a fluorescent probe, and consequently reduces the detected level of fluorescence polarization. Test compound stock solutions were prepared in DMSO and then serially diluted into 10 concentrations by 3-fold dilution in a 384-well plate using a TECAN EVO200. 60 nL of each dilution was transferred to the plate using an Echo550 (Labcyte), and then 10 μL 40 nM GST-tagged PARP1 (BPS Bioscience, Cat #80501), diluted in assay buffer (50 mM Tris pH 8.0, 0.001% Triton X-100, 10 mM MgCl2, 150 mM NaCl), was added to the plate. After a centrifugation at 1000 rpm for 1 min, the assay plate was incubated for 30 min at RT. 10 μL 6 nM PARPi-FL (TOCRIS, Cat #6461), diluted using assay buffer, was then added to the plate. The final concentrations of PARP1 and PARPi-FL were 20 nM and 3 nM, respectively, in a total volume of 20 μL. After a centrifugation at 1000 rpm for 1 min, the assay plate was incubated for 4 h at RT. Samples in each well were read using an Envision instrument (Perkin-Elmer; Ex=480 nm Em=FITC FP-P pol 535 nm & FITC FP-S pol 535 nm). Percent inhibition was calculated from mP values using Inhibition (%)=[1−(mPc−mPL)/(mPH−mPL)]×100%, where mPc, mPL, and mPH are the mP values of test compound, Low controls, and High controls, respectively. Binding IC50 values were calculated using XLFit (equation 201: y=A+((B−A)/(1+((x/C)^D))), where A=bottom, B=top, C=IC50, and D=slope) with a floating top and bottom for curves. Binding IC50 values are shown in Table A and are presented in ranges, in which “+++”<100 nM, 100 nM≤“++”<3000 nM, and “+”≥3000 nM.

Counter-ions that a name gives are not always drawn.

The EC50 is the concentration that produces a half-maximal response. A high value points to a need for much substance. One may read the IC50 as the concentration that gives 50% inhibition.

recombinant human PARP2, sequence (Q9UGN5 whole entry): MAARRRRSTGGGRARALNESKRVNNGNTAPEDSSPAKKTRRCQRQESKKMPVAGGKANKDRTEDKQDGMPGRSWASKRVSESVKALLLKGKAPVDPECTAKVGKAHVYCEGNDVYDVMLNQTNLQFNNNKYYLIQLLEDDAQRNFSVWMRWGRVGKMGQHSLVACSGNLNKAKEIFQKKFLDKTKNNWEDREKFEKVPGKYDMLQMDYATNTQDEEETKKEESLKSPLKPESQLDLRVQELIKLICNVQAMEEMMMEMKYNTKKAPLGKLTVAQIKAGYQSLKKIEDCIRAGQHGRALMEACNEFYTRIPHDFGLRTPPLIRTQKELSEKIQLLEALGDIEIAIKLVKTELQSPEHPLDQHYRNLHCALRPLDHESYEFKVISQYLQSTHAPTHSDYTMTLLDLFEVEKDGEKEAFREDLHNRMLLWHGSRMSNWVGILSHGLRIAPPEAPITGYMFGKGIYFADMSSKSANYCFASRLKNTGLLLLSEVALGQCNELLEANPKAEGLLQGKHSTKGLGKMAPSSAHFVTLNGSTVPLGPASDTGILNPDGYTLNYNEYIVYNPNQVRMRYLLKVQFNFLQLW
T1 sequence (P09874 whole entry, the tested form may be a part): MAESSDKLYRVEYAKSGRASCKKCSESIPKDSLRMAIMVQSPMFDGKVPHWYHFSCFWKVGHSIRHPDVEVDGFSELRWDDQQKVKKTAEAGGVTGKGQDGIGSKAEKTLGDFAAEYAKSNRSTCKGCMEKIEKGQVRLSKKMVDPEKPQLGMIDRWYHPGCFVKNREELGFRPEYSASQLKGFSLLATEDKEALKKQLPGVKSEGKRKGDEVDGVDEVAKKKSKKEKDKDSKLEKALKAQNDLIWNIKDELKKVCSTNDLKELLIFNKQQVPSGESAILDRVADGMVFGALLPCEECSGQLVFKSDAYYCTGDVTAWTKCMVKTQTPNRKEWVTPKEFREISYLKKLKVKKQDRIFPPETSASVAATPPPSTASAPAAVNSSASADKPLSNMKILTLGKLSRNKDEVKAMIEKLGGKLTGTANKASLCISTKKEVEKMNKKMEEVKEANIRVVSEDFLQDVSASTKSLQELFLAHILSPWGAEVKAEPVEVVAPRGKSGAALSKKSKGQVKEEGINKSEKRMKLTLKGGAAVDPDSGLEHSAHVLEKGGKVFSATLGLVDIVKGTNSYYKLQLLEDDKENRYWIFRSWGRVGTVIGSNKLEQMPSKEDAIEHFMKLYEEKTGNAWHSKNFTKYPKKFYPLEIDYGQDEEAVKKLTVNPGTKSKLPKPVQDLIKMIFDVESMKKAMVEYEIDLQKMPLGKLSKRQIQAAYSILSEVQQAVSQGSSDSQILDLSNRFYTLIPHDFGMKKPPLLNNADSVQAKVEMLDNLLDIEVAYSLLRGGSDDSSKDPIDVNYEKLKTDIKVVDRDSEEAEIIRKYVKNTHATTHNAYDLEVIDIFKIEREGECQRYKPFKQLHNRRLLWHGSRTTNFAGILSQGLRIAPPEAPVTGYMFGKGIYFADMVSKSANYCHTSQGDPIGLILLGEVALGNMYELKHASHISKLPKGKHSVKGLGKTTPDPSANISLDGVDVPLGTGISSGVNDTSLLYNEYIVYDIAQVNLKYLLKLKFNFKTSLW

Take `CCn1c(=O)[nH]c2cc(CN3CCN(c4ccc(C(=O)NC(CO)CO)nc4C)CC3)sc2c1=O` [Compound 527]: the EC50 on PARP1 [1] is more than 3 µM. For the same molecule, the inhibition at 10 µM on recombinant human PARP2 is 33 to 67%; in assay [2], less than 33%. In addition, the values for the IC50 (in assay [3]; on PARP1 [4]) were more than 3 µM and less than 0.1 µM, respectively.
Regarding `CCn1c(=O)[nH]c2cc(CN3CCN(c4ccc(C(=O)NC)nc4C(F)(F)F)CC3)sc2c1=O` [Compound 307], the EC50 at PARP1 [1] was 0.3 to 3 µM. Also, the IC50 is more than 3 µM at recombinant human PARP2, more than 3 µM in assay [2], 0.3 to 3 µM in assay [3] and less than 0.1 µM on PARP1 [4]. The inhibition at 10 µM at recombinant human PARP2 was 33 to 67%; in assay [2], less than 33%.
`CCn1c(=O)[nH]c2cc(CN3CCN(c4ccc(C(=O)NC)nc4C)C(=O)C3)sc2c1=O` [Compound 334, 5-[4-({3-ethyl-2,4-dioxo-1H-thieno[3,2-d]pyrimidin-6-yl}methyl)-2-oxopiperazin-1-yl]-N,6-dimethylpyridine-2-carboxamide] displayed an EC50 on PARP1 [1] of more than 3 µM. This molecule showed an IC50 on PARP1 [4] of 0.1 to 3 µM.
`CCn1c(=O)[nH]c2cc(CN3CCN(c4ccc(C(=O)NC5COC5)nc4C)CC3)sc2c1=O` [Compound 323] gave an EC50 at PARP1 [1] of more than 3 µM. Further, the inhibition at 10 µM on recombinant human PARP2 was 33 to 67%; in assay [2], less than 33%. Further, the values for the IC50 (in assay [3]; at PARP1 [4]) were more than 3 µM and less than 0.1 µM, respectively.
On PARP1 [1], `CCn1c(=O)[nH]c2cc(CN3CCN(c4ccc(C(=O)NC)nc4F)CC3)sc2c1=O` [Compound 319] had a concentration giving a half-maximal response (EC50) of less than 0.3 µM. In addition, the results for the inhibition at 10 µM (on recombinant human PARP2; in assay [2]) were 33 to 67% and less than 33%, respectively. Besides, the results for the IC50 (in assay [3]; on PARP1 [4]) were less than 0.3 µM and less than 0.1 µM, respectively.
With `CCn1c(=O)[nH]c2cc(CN3CCN(c4ccc(C(=O)NC)nc4)CC3)sc2c1=O` [Compound 86, 5-(4-((3-ethyl-2,4-dioxo-1,2,3,4-tetrahydrothieno[3,2-d]pyrimidin-6-yl)methyl)piperazin-1-yl)-N-methylpicolinamide formate], the IC50 at recombinant human PARP2 is more than 3 µM; in assay [3] it was less than 0.3 µM; on PARP1 [4], less than 0.1 µM. The inhibition at 10 µM on recombinant human PARP2 is 33 to 67%; in assay [2], less than 33%.
Take `CCn1c(=O)[nH]c2cc(CN3CCC(c4ccc(C(=O)NC)nc4C)CC3)ccc2c1=S` [Compound 498, 5-(1-((3-ethyl-2-oxo-4-thioxo-1,2,3,4-tetrahydroquinazolin-7-yl)methyl)piperidin-4-yl)-N,6-dimethylpicolinamide formate]: the IC50 on recombinant human PARP2 was more than 3 µM; in assay [2], more than 3 µM; in assay [3], more than 3 µM; at PARP1 [4] it was less than 0.1 µM. Moreover, the inhibition at 10 µM (on recombinant human PARP2; in assay [2]) was 33 to 67% each time.
On to `CNC(=O)c1ccc(N2CCN(Cc3ccc4c(=O)n(C)c(=O)[nH]c4c3)CC2)cn1` [Compound 2], for which the IC50 was more than 3 µM on recombinant human PARP2, more than 3 µM in assay [2], 0.3 to 3 µM in assay [3] and less than 0.1 µM at PARP1 [4]. The results for the inhibition at 10 µM (on recombinant human PARP2; in assay [2]) were 33 to 67% and less than 33%, respectively.
As for `CCn1c(=O)[nH]c2c(F)c(CN3CCN(c4ccc(C(=O)NC)nc4C)CC3)ccc2c1=S` [Compound 184, 5-(4-((3-ethyl-8-fluoro-2-oxo-4-thioxo-1,2,3,4-tetrahydroquinazolin-7-yl)methyl)piperazin-1-yl)-N,6-dimethylpicolinamide], the IC50 was more than 3 µM on recombinant human PARP2, more than 3 µM in assay [2], less than 0.3 µM in assay [3] and less than 0.1 µM at PARP1 [4]. Further, the inhibition at 10 µM (on recombinant human PARP2; in assay [2]) was 33 to 67% each time.
In the case of `CCn1c(=O)[nH]c2cc(CN3CCN(c4ccc(C(=O)NC)nc4C)CC3)c(C#N)cc2c1=S` [Compound 505, 5-(4-((6-cyano-3-ethyl-2-oxo-4-thioxo-1,2,3,4-tetrahydroquinazolin-7-yl)methyl)piperazin-1-yl)-N,6-dimethylpicolinamide trifluoroacetate], the IC50 at recombinant human PARP2 is more than 3 µM; in assay [2] it was more than 3 µM; in assay [3] it was 0.3 to 3 µM; on PARP1 [4], less than 0.1 µM. For the same molecule, the inhibition at 10 µM was 33 to 67% at recombinant human PARP2 and less than 33% in assay [2].

For the origin of these results see patent publication US20240132449A1, “HETEROCYCLIC COMPOUNDS AND METHODS OF USE THEREOF” (1cBio, Inc., priority 2022, published 2024).
